# From US4845077A, “Method of inducing ovulation” (Serono Laboratories, Inc., priority 1987, dated 1989)
# System: normal cynomolgus monkeys
# Experiment: GnRH antagonist plus fixed gonadotropin regimen (FSH/LH or FSH only) followed by hCG
# Assay type: in vivo
# Conditions: GnRH antagonist 1.0 mg/kg/day with gonadotropin 25 IU/day im, cycle days 3-9, versus gonadotropin-only controls
# Text: All of the groups received a fixed regimen of gonadotropin therapy for seven consecutive days (25 IU/day/im, cycle days 3-9) followed by hCG (1,000 IU/im) on cycle day 10.
substance,measurement,value
"(Ac-pClPhe^1,pClPhe^2, DTrp^3, DArg^6, DAla^10)GnRH HCl [GnRH antagonist]",variability in response to gonadotropin treatment,less
